Assay results: patent publication US7709482B2, “Polycyclic heteroaryl substituted triazoles useful as Axl inhibitors” (Rigel Pharmaceuticals, Inc., priority 2006, dated 2010)
Like-named read-outs stand apart in the source and are kept apart here.

Molecular target: T1, Axl (Homo sapiens, UniProt P30530)
T1 construct: endogenous in cells; host or cells: HeLa cells
T1 sequence (P30530 26-894): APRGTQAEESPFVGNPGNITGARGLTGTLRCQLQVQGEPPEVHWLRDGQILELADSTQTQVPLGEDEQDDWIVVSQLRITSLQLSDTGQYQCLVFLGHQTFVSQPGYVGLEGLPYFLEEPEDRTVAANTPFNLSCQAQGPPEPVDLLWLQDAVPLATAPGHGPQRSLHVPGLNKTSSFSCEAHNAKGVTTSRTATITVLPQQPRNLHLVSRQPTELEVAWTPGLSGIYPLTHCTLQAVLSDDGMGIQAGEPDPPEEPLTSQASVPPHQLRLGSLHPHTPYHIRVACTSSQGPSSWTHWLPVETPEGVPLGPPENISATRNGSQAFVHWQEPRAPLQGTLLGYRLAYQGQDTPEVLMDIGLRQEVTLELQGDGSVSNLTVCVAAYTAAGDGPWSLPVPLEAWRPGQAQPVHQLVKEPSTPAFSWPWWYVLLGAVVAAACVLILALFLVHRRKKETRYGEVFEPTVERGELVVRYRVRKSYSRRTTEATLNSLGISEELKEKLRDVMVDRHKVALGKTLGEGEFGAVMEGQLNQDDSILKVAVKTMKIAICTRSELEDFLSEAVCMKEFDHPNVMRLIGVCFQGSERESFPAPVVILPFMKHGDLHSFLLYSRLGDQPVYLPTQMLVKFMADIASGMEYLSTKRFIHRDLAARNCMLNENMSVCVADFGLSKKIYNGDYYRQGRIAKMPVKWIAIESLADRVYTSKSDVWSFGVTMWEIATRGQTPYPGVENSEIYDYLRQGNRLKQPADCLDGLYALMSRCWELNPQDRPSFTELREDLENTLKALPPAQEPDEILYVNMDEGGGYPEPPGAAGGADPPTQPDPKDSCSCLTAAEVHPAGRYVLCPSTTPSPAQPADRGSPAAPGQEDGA
Assay: Phospho-Akt In-Cell Western Assay (inhibition of Axl activity after Axl-antibody cross-linking)
Assay type: cell-based
Method: The compounds of the invention were tested in the following assay for their ability to inhibit Axl activity.
Phospho-Akt In-Cell Western Assay
• Cell culture plate: 96 well assay plate (Corning 3610), white, clear bottom, tissue-culture treated. • Cells: Hela cells. • Starvation medium: For Axl stimulation: 0.5% FCS (fetal calf serum) in DMEM, plus Axl/Fc (extracellular domain of AXL fused to immunoglobulin Fc region) (R&D, 154-AL) 500 ng/mL. • For EGF (epidermal growth factor) stimulation: 0.5% FCS in DMEM (Dulbecco's modified Eagles medium). • Poly-L-Lysine 0.01% solution (the working solution): […], dilute In PBS (phosphate buffered saline). • Axl antibody cross-linking: • 1st: Mouse anti-Axl (R&D, MAB154). • 2nd: Biotin-SP-conjugated AffiniPure goat anti-mouse IgG (H+ L) (Jackson ImmunoResearch #115-065-003). • Fixing buffer: 4% formaldehyde in PBS. • Wash buffer: 0.1% TritonX-100 in PBS. • Quenching buffer: 3% H2O2, 0.1% Azide in wash buffer, Azide and hydrogen peroxide (H2O2) are added fresh. • Blocking buffer: 5% BSA in TBST (tris buffered saline plus 0.1% Tween 20). • Primary antibody: Rabbit anti-human Phospho-Akt antibody (Cell Signaling 9271): 1×250 diluted in blocking buffer. • Secondary antibody: HRP (horse radish peroxidase)-conjugated Goat anti-Rabbit secondary, stock solution: Jackson ImmunoResearch (Goat anti-Rabbit HRP, #111-035-144) 1:1 diluted in glycerol, store at −20° C. The working solution: 1×2000 dilution of stock in blocking buffer. • Chemiluminescent working solution (Pierce, 37030): SuperSignal ELISA (enzyme linked immunosorbant assay) Pico Chemiluminescent substrate. • Crystal Violet solution: Stock: 2.5% Crystal violet in methanol, filtered and kept at ambient temperature. The working solution: dilute the stock 1:20 with PBS immediately before use. • 10% SDS: working solution: 5% SDS (sodium dodecylsulfate), diluted in PBS Methods: Day 1:
A 96 well TC (tissue culture treated) plate was coated with 10 μg/mL poly-L-Lysine at 37° C. for 30 min, washed twice with PBS, and air-dried for 5 minutes before cells were added. Hela cells were seeded at 10,000 cells/well and the cells were starved in 100 μL starvation medium containing Axl/Fc for 24 hrs.
The cells were pre-treated with test compounds by adding 100 μL of 2× test compound to the starvation medium on the cells. The cells were incubated at 37° C. for 1 hr before stimulation.
The resulting mix was warmed to 37° C. 50 μL of 5×Axl 1st/2nd of antibody cluster was added to the cells and the cells were incubated at 37° C. for 5 min.
After 5 minutes stimulation, the plate was flicked to remove medium and the plate was tapped onto paper towels. Formaldehyde (4.0% in PBS, 100 μL) was added to fix the cells and the cells were incubated at ambient temperature for 20 min without shaking.
The cells were washed with a plate washer buffer to remove the formaldehyde solution. The plate was flicked to removed excess wash buffer and tapped onto paper towels. Quenching buffer (100 μL) was added to each well and the cells were incubated at ambient temperature for 20 minutes without shaking.
The cells were washed with a plate washer buffer to remove the quenching buffer. Blocking buffer (100 μL) was added and the cells were incubated at ambient temperature for at least an hour with gentle shaking.
The cells were washed with a plate washer buffer and diluted primary antibody (50 μL) was added to each well (blocking buffer was added to the negative control wells instead). The plates were incubated overnight at 4° C. with gentle shaking.
The wash buffer was removed, diluted secondary antibody (100 μL) was added, and the cells were incubated at ambient temperature for 1 hour with gentle shaking. During the incubation, the chemiluminescent reagent was brought to ambient temperature.
The secondary antibody was removed by washing the cells 1× with wash buffer, 1× with PBS by plate washer.

[1] = Hela cells, phospho-Akt chemiluminescence normalized to relative cell number, compounds of formula (Ia), Table 1, read-out: IC50

Structure (SMILES): Nc1nc(Nc2ccc(OCCN3CCCC3)cc2)nn1-c1cc2c(nn1)-c1ccccc1CCC2 [Compound 1, 1-(6,7-dihydro-5H-benzo[6,7]cyclohepta[1,2-c]pyridazin-3-yl)-N^3-(4-(2-(pyrrolidin-1-yl)ethoxy)phenyl)-1H-1,2,4-triazole-3,5-diamine]
- IC50 [1]: < 1000 nM

Structure (SMILES): Nc1nc(Nc2ccc(N3CCN(C4CCCCC4)CC3)cc2)nn1-c1cc2c(nn1)-c1ccccc1CCC2 [Compound 3, N^3-(4-(4-cyclohexanylpiperazin-1-yl)phenyl)-1-(6,7-dihydro-5H-benzo[6,7]cyclohepta[1,2-c]pyridazin-3-yl)-1H-1,2,4-triazole-3,5-diamine]
- IC50 [1]: < 1000 nM

Structure (SMILES): Nc1nc(Nc2ccc(N3CCC(N4CCCC4)CC3)c(F)c2)nn1-c1cc2c(nn1)-c1ccccc1CCC2 [Compound 4]
- IC50 [1]: < 1000 nM

Structure (SMILES): CN1CCN(c2ccc(Nc3nc(N)n(-c4cc5c(nn4)-c4ccccc4CCC5)n3)cc2F)CC1c1ccccc1 (stereo not drawn) [Compound 5, 1-(6,7-dihydro-5H-benzo[6,7]cyclohepta[1,2-c]pyridazin-3-yl)-N^3-(3-fluoro-4-(4-methyl-3-phenylpiperazin-1-yl)phenyl)-1H-1,2,4-triazole-3,5-diamine]
- IC50 [1]: > 20000 nM

Structure (SMILES): Nc1nc(Nc2ccc(N3CCC(N4CCCCC4)CC3)c(F)c2)nn1-c1cc2c(nn1)-c1ccccc1CCC2 [Compound 6, 1-(6,7-dihydro-5H-benzo[6,7]cyclohepta[1,2-c]pyridazin-3-yl)-N^3-(3-fluoro-(4-(4-piperidin-1-yl)piperidin-1-yl)phenyl)-1H-1,2,4-triazole-3,5-diamine]
- IC50 [1]: < 1000 nM

Structure (SMILES): Nc1nc(Nc2ccc(N3CCC(N4C(=O)Cc5ccccc54)CC3)c(F)c2)nn1-c1cc2c(nn1)-c1ccccc1CCC2 [Compound 7, 1-(6,7-dihydro-5H-benzo[6,7]cyclohepta[1,2-c]pyridazin-3-yl)-N^3-(3-fluoro-4-(4-(indolin-2-on-1-yl)piperidin-1-yl)phenyl)-1H-1,2,4-triazole-3,5-diamine]
- IC50: > 20000 nM

Structure (SMILES): Nc1nc(Nc2ccc(N3CCN(C4CC5CCC4C5)CC3)nc2)nn1-c1cc2c(nn1)-c1ccccc1CCC2 (stereo not drawn) [Compound 8, 1-(6,7-dihydro-5H-benzo[6,7]cyclohepta[1,2-c]pyridazin-3-yl)-N^3-(6-(4-(bicyclo[2.2.1]heptan-2-yl)piperazin-1-yl)pyridin-3-yl)-1H-1,2,4-triazole-3,5-diamine]
- IC50 [1]: 1000 to 10000 nM

Structure (SMILES): Nc1nc(Nc2ccc(N3CCC(N4CCOCC4)CC3)c(F)c2)nn1-c1cc2c(nn1)-c1ccccc1CCC2 [Compound 9, 1-(6,7-dihydro-5H-benzo[6,7]cyclohepta[1,2-c]pyridazin-3-yl)-N^3-(3-fluoro-4-(4-(morpholin-4-yl)piperidin-1-yl)phenyl)-1H-1,2,4-triazole-3,5-diamine]
- IC50 [1]: 1000 to 10000 nM

Structure (SMILES): Nc1nc(Nc2ccc(C(=O)N3CCN(C4CCCC4)CC3)cc2)nn1-c1cc2c(nn1)-c1ccccc1CCC2 [Compound 10, 1-(6,7-dihydro-5H-benzo[6,7]cyclohepta[1,2-c]pyridazin-3-yl)-N^3-(4-(4-(cyclopentyl)piperazin-1-ylcarbonyl)phenyl)-1H-1,2,4-triazole-3,5-diamine]
- IC50 [1]: 1000 to 10000 nM

Structure (SMILES): Nc1nc(Nc2ccc3c(c2)NC(=O)CCC3)nn1-c1cc2c(nn1)-c1ccccc1CCC2 [Compound 11, 1-(6,7-dihydro-5H-benzo[6,7]cyclohepta[1,2-c]pyridazin-3-yl)-N^3-(4,5-dihydro-1H-benzo[b]azepin-2(3H)-on-8-yl)-1H-1,2,4-triazole-3,5-diamine]
- IC50 [1]: < 1000 nM

Structure (SMILES): Nc1nc(Nc2ccc(C(=O)NCCN3CCCC3)cc2)nn1-c1cc2c(nn1)-c1ccccc1CCC2 [Compound 12, 1-(6,7-dihydro-5H-benzo[6,7]cyclohepta[1,2-c]pyridazin-3-yl)-N^3-(4-((2-pyrrolidin-1-ylethyl)aminocarbonyl)phenyl)-1H-1,2,4-triazole-3,5-diamine]
- IC50 [1]: < 1000 nM

Structure (SMILES): CN(C)Cc1nc2cc(Nc3nc(N)n(-c4cc5c(nn4)-c4ccccc4CCC5)n3)ccc2[nH]1 [Compound 13, 1-(6,7-dihydro-5H-benzo[6,7]cyclohepta[1,2-c]pyridazin-3-yl)-N^3-(2-((dimethylamino)methyl)-1H-benzo[d]imidazol-5-yl)-1H-1,2,4-triazole-3,5-diamine]
- IC50 [1]: 1000 to 10000 nM

Structure (SMILES): CC1(C)CCCC(C)(C)N1CCOc1ccc(Nc2nc(N)n(-c3cc4c(nn3)-c3ccccc3CCC4)n2)cc1 [Compound 14, 1-(6,7-dihydro-5H-benzo[6,7]cyclohepta[1,2-c]pyridazin-3-yl)-N^3-(4-(2,2,6,6-tetramethylpiperidin-1-yl)ethoxyphenyl)-1H-1,2,4-triazole-3,5-diamine]
- IC50 [1]: 1000 to 10000 nM

Structure (SMILES): CC1CN(C2CCCC2)CCN1c1ccc(Nc2nc(N)n(-c3cc4c(nn3)-c3ccccc3CCC4)n2)cc1 (stereo not drawn) [Compound 16, 1-(6,7-dihydro-5H-benzo[6,7]cyclohepta[1,2-c]pyridazin-3-yl)-N^3-(4-(4-cyclopentyl-2-methylpiperazin-1-yl)phenyl)-1H-1,2,4-triazole-3,5-diamine]
- IC50 [1]: < 1000 nM

Structure (SMILES): CC1CN(c2ccc(Nc3nc(N)n(-c4cc5c(nn4)-c4ccccc4CCC5)n3)cc2)CC(C)N1 (stereo not drawn) [Compound 17, 1-(6,7-dihydro-5H-benzo[6,7]cyclohepta[1,2-c]pyridazin-3-yl)-N^3-(4-(3,5-dimethylpiperazin-1-yl)phenyl)-1H-1,2,4-triazole-3,5-diamine]
- IC50 [1]: < 1000 nM

Structure (SMILES): N#Cc1cc(Nc2nc(N)n(-c3cc4c(nn3)-c3ccccc3CCC4)n2)ccc1N1CCC(N2CCCC2)CC1 [Compound 18, 1-(6,7-dihydro-5H-benzo[6,7]cyclohepta[1,2-c]pyridazin-3-yl)-N^3-(4-(4-(pyrrolidin-1-yl)piperidin-1-yl)-3-cyanophenyl)-1H-1,2,4-triazole-3,5-diamine]
- IC50 [1]: < 1000 nM

Structure (SMILES): CN(C)CCNC(=O)c1ccc(Nc2nc(N)n(-c3cc4c(nn3)-c3ccccc3CCC4)n2)cc1 [Compound 19, 1-(6,7-dihydro-5H-benzo[6,7]cyclohepta[1,2-c]pyridazin-3-yl)-N^3-(4-((2-(dimethylamino)ethyl)-aminocarbonyl)phenyl)-1H-1,2,4-triazole-3,5-diamine]
- IC50 [1]: 1000 to 10000 nM

Structure (SMILES): COCCNC(=O)c1ccc(Nc2nc(N)n(-c3cc4c(nn3)-c3ccccc3CCC4)n2)cc1 [Compound 20, 1-(6,7-dihydro-5H-benzo[6,7]cyclohepta[1,2-c]pyridazin-3-yl)-N^3-(4-((2-(methoxy)ethyl)amino-carbonyl)phenyl)-1H-1,2,4-triazole-3,5-diamine]
- IC50 [1]: 1000 to 10000 nM
